Laboratory results: patent US20200222474A1, “COMPOSITIONS AND METHODS FOR INCREASING PHYTOCHEMICAL BIOAVAILABLITY AND BIOACTIVITY” (North Carolina State University, priority 2017, published 2020)

Columns and labels:
Assay type in all cases: cell-based, Lactobacillus acidophilus
NCK2422 (ΔLBA0725) = assay: Phenotypic growth analysis of deletion mutant (PTS EIICBA); settings: for growth of the ΔLBA0725 mutant (inactive PTS EIICBA): compared with background Δupp strain
Experimental: (§1) Phenotypic growth assays were performed using 1% (v/v) overnight cultures of L. acidophilus strains (Table 2) and other Lactobacillus species (Table 3) grown on SDM supplemented with 1% (w/v) glucose to inoculate 200 μL of SDM supplemented with 1% (w/v) of the examined carbohydrate (0.5% in the case of esculin) in 96-well microplate wells (Corning Costar, Corning, N.Y., USA) in duplicate or triplicate wells, respectively. The microplates were sealed with clear adhesive film, incubated at 37° C. in a Fluostar Optima microplate reader (BMG Labtech, Cary, N.C., USA), and the cell optical density (OD600) was monitored for 30 hours.
(§2) Construction of gene deletion mutants. The L. acidophilus NCFM genes LBA0225 and LBA0726, both encoding P-Bgl of glycoside hydrolase family 1 (GH1) enzymes in addition to the LBA0227 and LBA0725 genes encoding an EIIC and an EIICBA components of two PTS systems, respectively, were deleted using the upp-based counterselectable gene replacement system. Briefly, in-frame deletions were constructed by amplifying 650-750 bp of the up- and downstream flanking regions of the deletion targets with two primer pairs (e.g., LBA0225A/LBA0225B and LBA0225C/LBA0225D; Table 4). The resulting purified products were joined by splicing using overlap extension PCR (SOE-PCR63) and amplified to establish the deletion alleles. The SOE-PCR products, that include flanking restriction enzyme sites, were cloned within the BamHI and SacI/EcoRI sites of the pTRK935 integration vector and transformed into E. coli EC101. The resulting recombinant plasmids (pTRK1113-6) were confirmed by DNA sequencing and electroporated into L. acidophilus NCK1910 (Table 2) that contains the pTRK669 helper plasmid, and the recovery of the single- and double-crossover recombinants was performed as previously described. Recombinants carrying the new gene deletion alleles were isolated by colony PCR using primer pairs denoted up/down (e.g., LBA0225up/LBA0225down), which anneal to the flanking regions of the amplicons. Sequence integrity and in-frame deletions were verified by DNA sequencing employing the aforementioned primer pairs and primer denoted mid (e.g., LBA0225mid). The mutations were in-frame deletions of 90-96% of the coding regions.
To establish the functional significance of these two loci, single deletions of each PTS EII and P-Bgl gene, and a double deletion of both P-Bgl genes were constructed using the upp-based counter-selectable gene replacement system (Table 2) and the growth phenotypes of the mutant strains were analyzed (FIG. 3). Phenotypic growth analyses of deletion mutants of EII PTS transporters (FIGS. 3A, 3C, 3E, 3G, and 3I) and phospho-β-glucosidase (FIGS. 3B, 3D, 3F, 3H, and 3J) on the β-glucosides esculin, salicin, amygdalin and the disaccharides gentiobiose and cellobiose. The background Aupp strain is shown as a grey fill graph and the growth of the mutant strains is shown as: PTS EIIC (LBA0227, pink triangle), the phospho-β-glucosidase (LBA0225, light blue triangles), the PTS EIICBA (LBA0725, yellow squares), the second phospho-β-glucosidase (LBA0726, lilac squares) and the double phospho-β-glucosidase mutant (LBA0225/LBA0726, black stars). The color scheme is consistent with that used for the gene loci in FIG. 2.

NCK2418 (ΔLBA0227) = assay: Phenotypic growth analysis of deletion mutant (PTS EIIC); settings: compared with background Δupp strain
Experimental: as §1, §2
(§3) To establish the functional significance of these two loci, single deletions of each PTS EII and P-Bgl gene, and a double deletion of both P-Bgl genes were constructed using the upp-based counter-selectable gene replacement system (Table 2) and the growth phenotypes of the mutant strains were analyzed (FIG. 3). […]

NCK2424 (ΔLBA0726) = assay: Phenotypic growth analysis of deletion mutant (phospho-β-glucosidase); settings: compared with background Δupp strain
Experimental: as §1
Construction of gene deletion mutants. The L. acidophilus NCFM genes LBA0225 and LBA0726, both encoding P-Bgl of glycoside hydrolase family 1 (GH1) enzymes in addition to the LBA0227 and LBA0725 genes encoding an EIIC and an EIICBA components of two PTS systems, respectively, were deleted using the upp-based counterselectable gene replacement system. Briefly, in-frame deletions were constructed by amplifying 650-750 bp of the up- and downstream flanking regions of the deletion targets with two primer pairs (e.g., LBA0225A/LBA0225B and LBA0225C/LBA0225D; Table 4). The resulting purified products were joined by splicing using overlap extension PCR (SOE-PCR63) and amplified to establish the deletion alleles. The SOE-PCR products, that include flanking restriction enzyme sites, were cloned within the BamHI and SacI/EcoRI sites of the pTRK935 integration vector and transformed into E. coli EC101. […]
as §3

[1] = tested on: NCK2426 (ΔLBA0225ΔLBA0726); assay: Phenotypic growth analysis of double phospho-β-glucosidase mutant; settings: compared with background Δupp strain
Experimental: as §1
Construction of gene deletion mutants. The L. acidophilus NCFM genes LBA0225 and LBA0726, both encoding P-Bgl of glycoside hydrolase family 1 (GH1) enzymes in addition to the LBA0227 and LBA0725 genes encoding an EIIC and an EIICBA components of two PTS systems, respectively, were deleted using the upp-based counterselectable gene replacement system. […]
as §3

Row | SMILES | growth of the ΔLBA0725 mutant (inactive PTS EIICBA) (NCK2422 (ΔLBA0725)) | growth of the ΔLBA0227 mutant (inactive EIIC) (NCK2418 (ΔLBA0227)) | reduction of growth on inactivation of the EIICBA (LBA0725) (NCK2422 (ΔLBA0725)) | growth of the ΔLBA0726 mutant (P-Bgl) (NCK2424 (ΔLBA0726)) | growth of the double P-Bgl mutant (LBA0225/LBA0726) [1]
1 | O=c1ccc2cc(O[C@@H]3O[C@H](CO)[C@@H](O)[C@H](O)[C@H]3O)c(O)cc2o1 [Esculin] | abolished | invariant |  |  | 
2 | OCc1ccccc1O[C@@H]1O[C@H](CO)[C@@H](O)[C@H](O)[C@H]1O [Salicin] | abolished | invariant |  |  | 
3 | N#C[C@H](O[C@@H]1O[C@H](CO[C@@H]2O[C@H](CO)[C@@H](O)[C@H](O)[C@H]2O)[C@@H](O)[C@H](O)[C@H]1O)c1ccccc1 [Amygdalin] | severely reduced | abolished | about 50% | severe reduction in growth | abolished
